Assays:
[1] = solubility of sodium salt in water; type: physicochemical; conditions: read-out: soluble in water
Description: To a stirred solution of acid (compound 67, 1 mmol) in EtOH (25v) was added 0.5M NaOH solution (1 mmol) drop-wise at 30° C. followed by 10V of water. After 30 minutes, excess of ethanol was removed under reduced pressure at 35 deg C. and repeatedly distilled with ethanol two or three times until free solid obtained. The solid was further washed with n-Hexane to obtain compound 67 Compound 67 is soluble in 1 mg/mL water.
The protocol for synthesizing compound 67 was followed to prepare compound 68. Compound 68 is also soluble in 1 mg/mL water.

AMPK beta 1 = target: T1, AMPK beta 1 (Homo sapiens, UniProt Q13131+Q9Y478); assay: in-cell-ELISA for phospho-ACC, Activity beta 1; type: cell-based; conditions: 2 h, serum free DMEM, percentage activation over vehicle control, cell line not given (HepG2 or C2C12 myotubes)
T1 construct: in-cell-ELISA for phospho-ACC (Acetyl-CoA carboxylase 1) in HepG2 cells (liver); endogenous in cells; host or cells: HepG2
T1 sequence (Q9Y478 whole entry): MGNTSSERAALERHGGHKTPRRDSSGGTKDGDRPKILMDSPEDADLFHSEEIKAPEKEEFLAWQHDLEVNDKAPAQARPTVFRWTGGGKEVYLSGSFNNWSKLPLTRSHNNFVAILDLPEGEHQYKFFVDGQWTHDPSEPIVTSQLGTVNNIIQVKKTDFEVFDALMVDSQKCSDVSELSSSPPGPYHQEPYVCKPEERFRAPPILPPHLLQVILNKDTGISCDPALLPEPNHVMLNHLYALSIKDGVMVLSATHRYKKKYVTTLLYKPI
T1 sequence (Q13131 whole entry): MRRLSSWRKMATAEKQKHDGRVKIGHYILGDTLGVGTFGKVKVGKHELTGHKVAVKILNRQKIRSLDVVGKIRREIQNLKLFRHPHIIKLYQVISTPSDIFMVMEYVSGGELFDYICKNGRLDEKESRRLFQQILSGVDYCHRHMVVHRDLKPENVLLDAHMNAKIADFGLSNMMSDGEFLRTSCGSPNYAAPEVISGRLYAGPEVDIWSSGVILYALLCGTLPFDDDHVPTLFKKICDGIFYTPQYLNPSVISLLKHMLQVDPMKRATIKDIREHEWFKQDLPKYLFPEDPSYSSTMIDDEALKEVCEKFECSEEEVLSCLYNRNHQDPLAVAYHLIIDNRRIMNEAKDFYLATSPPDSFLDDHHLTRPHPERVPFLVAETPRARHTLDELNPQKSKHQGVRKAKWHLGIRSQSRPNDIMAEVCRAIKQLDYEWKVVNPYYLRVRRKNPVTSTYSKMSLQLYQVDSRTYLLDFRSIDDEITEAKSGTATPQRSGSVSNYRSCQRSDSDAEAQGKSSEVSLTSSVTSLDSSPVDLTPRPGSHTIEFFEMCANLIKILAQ
T1 sequence (P54619 whole entry partner): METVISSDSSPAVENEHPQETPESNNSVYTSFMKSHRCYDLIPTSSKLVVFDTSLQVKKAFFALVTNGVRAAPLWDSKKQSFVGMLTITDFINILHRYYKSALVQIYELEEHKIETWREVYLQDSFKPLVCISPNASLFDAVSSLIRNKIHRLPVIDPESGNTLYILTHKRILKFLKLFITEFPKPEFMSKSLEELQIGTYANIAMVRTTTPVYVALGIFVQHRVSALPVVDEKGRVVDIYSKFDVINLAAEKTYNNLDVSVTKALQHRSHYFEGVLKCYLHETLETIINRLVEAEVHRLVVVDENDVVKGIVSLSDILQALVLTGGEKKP
Description: (§1) Activation of AMPK by various compounds were measured using in-cell-ELISA for phospho-ACC (Acetyl-CoA carboxylase 1) in HepG2 cells (liver) and fully differentiated myotubes (C2C12 cells) grown in 96 well plate. Cells were treated with 1 μM of the molecule for 2 h in serum free DMEM media. After methanol fixation, cells were blocked with BSA followed by addition of anti-phospho ACC antibody (Cell Signaling) and HRP conjugated secondary antibody. Absorbance values taken at 450 nm and were normalized with total DNA (Hoechest stain). Results were expressed as percentage activation over vehicle control.

AMPK beta 2 = target: T2, AMPK beta 2 (Mus musculus, UniProt Q6PAM0+Q8BRK8); assay: in-cell-ELISA for phospho-ACC, Activity beta 2; type: cell-based; conditions: 2 h, serum free DMEM, percentage activation over vehicle control, cell line not given (HepG2 or C2C12 myotubes)
T2 construct: fully differentiated myotubes (C2C12 cells) grown in 96 well plate; endogenous in cells; host or cells: C2C12 myotubes
T2 sequence (Q6PAM0 whole entry): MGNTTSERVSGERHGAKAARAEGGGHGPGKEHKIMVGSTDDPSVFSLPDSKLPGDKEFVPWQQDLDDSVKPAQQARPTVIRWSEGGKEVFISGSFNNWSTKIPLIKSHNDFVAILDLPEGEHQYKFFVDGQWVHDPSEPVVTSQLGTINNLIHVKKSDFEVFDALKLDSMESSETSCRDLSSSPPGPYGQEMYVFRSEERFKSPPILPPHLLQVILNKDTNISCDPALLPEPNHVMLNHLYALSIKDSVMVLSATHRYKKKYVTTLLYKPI
T2 sequence (Q8BRK8 whole entry): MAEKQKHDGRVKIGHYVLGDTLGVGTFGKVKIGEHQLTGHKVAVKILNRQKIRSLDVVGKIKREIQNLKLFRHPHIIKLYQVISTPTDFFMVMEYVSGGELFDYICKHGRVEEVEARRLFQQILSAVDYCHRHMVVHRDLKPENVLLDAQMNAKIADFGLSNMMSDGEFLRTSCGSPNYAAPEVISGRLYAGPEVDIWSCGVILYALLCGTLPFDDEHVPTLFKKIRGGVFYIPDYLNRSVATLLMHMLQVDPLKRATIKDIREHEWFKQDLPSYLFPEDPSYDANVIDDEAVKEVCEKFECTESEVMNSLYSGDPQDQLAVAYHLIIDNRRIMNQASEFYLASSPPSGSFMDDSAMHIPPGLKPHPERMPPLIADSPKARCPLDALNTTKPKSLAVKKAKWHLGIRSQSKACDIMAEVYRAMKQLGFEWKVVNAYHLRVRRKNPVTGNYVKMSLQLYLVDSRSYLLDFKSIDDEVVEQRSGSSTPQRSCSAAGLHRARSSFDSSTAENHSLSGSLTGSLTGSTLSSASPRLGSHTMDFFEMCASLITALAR
T2 sequence (O54950 whole entry partner): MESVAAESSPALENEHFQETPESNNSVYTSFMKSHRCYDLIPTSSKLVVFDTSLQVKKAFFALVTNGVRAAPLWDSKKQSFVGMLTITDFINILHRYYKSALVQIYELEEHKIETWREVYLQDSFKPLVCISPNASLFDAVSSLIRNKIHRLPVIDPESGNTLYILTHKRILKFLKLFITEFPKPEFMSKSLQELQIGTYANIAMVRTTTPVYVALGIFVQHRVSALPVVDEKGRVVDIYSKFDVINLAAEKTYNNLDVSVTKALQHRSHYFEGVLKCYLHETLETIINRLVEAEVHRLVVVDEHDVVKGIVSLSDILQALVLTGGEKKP
Description: as §1

| Structure (SMILES) | solubility [1] [µg/mL] | activation at 1 µM (AMPK beta 1) [%] | Activity beta 2 (at 1 uM) (AMPK beta 2) |
| --- | --- | --- | --- |
| COc1ccc(/C=C2\C(=O)Nc3cc(Cl)c(-c4ccc(-c5ccc(-n6cncn6)cc5)cc4)cc32)cc1CC(=O)[O-].[Na+] [Example 67, sodium {5-[(E/Z)-{6-chloro-2-oxo-5-[4′-(1H-1,2,4-triazol-1-yl)biphenyl-4-yl]-1,2-dihydro-3H-indol-3-ylidene}methyl]-2-methoxyphenyl}acetate] | ≥ 1000 | > 40 | – |
| O=C(O)Cc1ccc(C=C2C(=O)Nc3cc(Cl)c(-c4ccc(-c5ccc(-n6cncn6)cc5)cc4)cc32)cc1 [Example 53] | – | > 40 | *** (*** >40) |
| O=C(O)Cc1ccc(/C=C2\C(=O)Nc3cc(Cl)c(-c4ccc(-c5ccc(-n6cncn6)cc5)cc4)cc32)cc1 [Example 68, sodium {4-[(E/Z)-{6-chloro-2-oxo-5-[4′-(1H-1,2,4-triazol-1-yl)biphenyl-4-yl]-1,2-dihydro-3H-indol-3-ylidene}methyl]phenyl}acetate] | ≥ 1000 | > 40 | – |
| Cn1cc(C=C2C(=O)Nc3cc(Cl)c(-c4ccc(-c5ccccc5O)cc4)cc32)cc1C(=O)O [Example 13] | – | > 40 | *** (*** >40) |

From patent US20160368870A1, “OLEFIN SUBSTITUTED OXINDOLES HAVING AMPK ACTIVITY” (BOEHRINGER INGELHEIM INTERNATIONAL GMBH, priority 2013, published 2016)
